Test results from patent US7790668B2, “2-methoxy-2,6-dimethyloctanal and its use as a fragrance ingredient” (Givaudan SA, priority 2005, dated 2010).

Assay: Odour threshold concentration by using an olfactometer
Conditions: for Odour threshold concentration, geometric mean: olfactometer, forced-choice triangle presentation, group of 12 panelists, both compounds measured on the same day under identical conditions; for odour threshold concentration, times lower compared to 6-methoxy-2,6-dimethylheptanal (Methoxymelonal): ratio of the geometric mean thresholds vs the prior-art compound
Text: The odour threshold concentration is defined as the lowest concentration of the vapour of an odorous material in the air which can be detected by smell. The concentration can be measured by standard methods known in the art by using either olfactometry means or sniff-bottles allowing panelists to smell the presented headspace.
The olfactometer functions on the principle of a linear dilution of an odorant in a carrier gas. The quantity of odorant displaced depends on its vapour pressure and the carrier gas flow. A constant flow of nitrogen, regulated by a flow regulator, carries the odorant from a sample container to a mixing chamber. There, the carrier gas-odour mixture is diluted with odourless air. From the mixing chamber one part of the diluted odorous air is allowed to flow via a fused silica capillary to the sniffing funnel. The flow rate through the capillary, which determines the dosage of odorous air from the mixing chamber into the sniffing funnel, depends on the opening of the valve which can be regulated via PC from 1 to 256 ml in binary steps. The final dilution of the odorous air sample occurs in the glass funnel by flushing them permanently with odourless air at a flow rate of 8 L/min. Forced-choice triangle presentation is achieved by a special automated channel setting device where only in one position of a switch the odorant delivering capillary enters in the sniffing funnel, whereas in the two other positions the capillary is positioned outside the funnel and where the effluent is sucked away. After each trial the channel setting is changed automatically and in a random order. The concentration is calculated from the odorants vapour pressure and from the dilution ratios that were applied in the olfactometer, assuming that vapour saturation is achieved in the sample generator. As a control the concentration was by sampling a known volume from the capillary effluent into a headspace filter and then determined. The panelist starts sniffing at the olfactometer at a concentration level at which he perceives the odorant at medium intensity. After three correct answers in three consecutive trials (or four correct ones of five trials) at the same level, stimulus concentration is decreased by a factor of two to the next lower level, and so on, until the panelist has reached his threshold level.
Under identical conditions the odour threshold concentration for 6-methoxy-2,6-dimethyloctanal and 6-methoxy-2,6-dimethylheptanal was measured and compared by a group of 12 panelists. The sequence with which of the two compounds the panelist started smelling was alternated. Both compounds were measured on the same day and the following data were obtained: […]

Row | Structure (SMILES) | Odour threshold concentration, geometric mean [ng/L] | odour threshold concentration, times lower compared to 6-methoxy-2,6-dimethylheptanal (Methoxymelonal) | odour threshold concentration, times lower compared to 6-methoxy-2,6-dimethylheptanal (Methoxymelonal) (listed as compound of the present invention) [times]
1 | COC(C)(C)CCCC(C)C=O (stereo not shown) [6-methoxy-2,6-dimethylheptanal, reference compound] | 1.92 |  | 
2 | CCC(C)(CCCC(C)C=O)OC (stereo not shown) [6-methoxy-2,6-dimethyloctanal] | 0.78 | about 2.5 times | 2.46
